Experimental data from patent publication US12337037B2, “Taxol conjugate compounds, pharmaceutical compositions comprising the same, and methods for their use” (N1 Life, Inc, priority 2021, dated 2025).

Assays:
[1] = tested on: breast cancer MCF7/MBA-MD-231 cells; assay: CCK-8 cytotoxicity / anti-proliferation assay, MCF7/MBA-MD-231; type: cell-based; conditions: all tested concentrations (500-4000 nM)
Method: (§1) Cytotoxicity Assay—CCK8 Cancer Cells
(§2) The CCK-8 assay was applied to study the cytotoxicity of the peptide drug conjugates and their inhibition of proliferation of cancer cells. First, 2˜10×10^3 cells (depending on the rate of growth of different cell lines) with 100 μL, DMEM media were seeded in normal culture medium into each well of a 96-well plate. The cells were then cultured overnight at 37° C. with 4˜5% CO2. Different doses (4000, 2000, 1000, 500 nM for Hep3B, Hep G2 and MCF7/MBA-MD-231; 1000, 333.3, 100.0, 33.33, 3.333, 1.000, 0.333 nM for MCF7/ADR, 22Rv1, CNE1, HCT116, DLD-1) of Taxol and peptide drugs were added. After 48˜72 hour incubation, CCK-8 solution was added to each well. The cells were then incubated at 37° C. for 4 hours. The optical density was measured at 450/650 nm using a multiscan spectrometer (PerkinElmer's EnSpire Multilabel Plate Reader). The optical density is linearly proportional to the number of living cells in the sample: […]

Hep G2 cells = assay: CCK-8 cytotoxicity / anti-proliferation assay, Hep G2; type: cell-based; conditions: 2000 nM
Method: as §1, §2

[2] = tested on: human pancreatic cancer (BXPC-3) cells; assay: Efficacy against pancreatic cancer; type: in vivo, mice; conditions: BXPC-3 model; 9.6 mg/kg QD5 (days 0, 5, 10); vs vehicle
Method: Following the procedure described in Biological Example 5, mice were injected with human pancreatic cancer (BXPC-3) cells and treated with Compound 3 (9.6 mg/kg) QD5 (dosing on days 0, 5, and 10) to study the efficacy of Compound 3. […] FIG. 11 is a graph comparing the fluorescence area on Day 17 of the study of the mice administered vehicle and the mice administered Compound 3. FIG. 12 is a graph comparing the tumor weight of the mice administered vehicle and the mice administered Compound 3 on Day 17.

## CC(=O)N[C@@H](CSSCCCC(=O)OC(C(=O)O[C@H]1C[C@@]2(O)[C@@H](OC(=O)c3ccccc3)[C@@H]3[C@]4(OC(C)=O)CO[C@@H]4C[C@H](O)[C@@]3(C)C(=O)[C@H](OC(C)=O)C(=C1C)C2(C)C)[C@@H](NC(=O)c1ccccc1)c1ccccc1)C(=O)N[C@H](CCCNC(=N)N)C(=O)N[C@H](CCCNC(=N)N)C(=O)N[C@H](CCCNC(=N)N)C(=O)N[C@H](CCCNC(=N)N)C(=O)N[C@H](CCCNC(=N)N)C(=O)N[C@H](CCCNC(=N)N)C(=O)N[C@H](CCCNC(=N)N)C(=O)N[C@H](CCCNC(=N)N)C(N)=O (stereo partly drawn) [Compound 3, Ac-L-Cysteine (paclitaxel-4-mercaptobutanoate)-D-Arginine8-NH2]
[1]
  cancer cell inhibition compared to Compound 5 (FIG. 1): substantially superior to cancer cell inhibition compared to Compound 5 at all tested concentrations
Hep G2 cells
  anti-proliferation effect compared to Taxol and Compound 5 (FIG. 2B): greater than the anti-proliferation effect of Taxol and Compound 5
[2]
  fluorescence area of the tumor over the course of the study (FIG. 10): fluorescence area increased in the vehicle-administered mice to a greater degree over the course of the study compared to the Compound 3-administered mice
